Results on 1 substance are retold here after patent US8828932B2, “Bifunctional molecules for inactivating HIV and blocking HIV entry” (New York Blood Center, Inc., priority 2010, dated 2014).

pIC50: −log10 of the molar value. Some results are limits rather than exact numbers.

In assay [1] the test system is HIV-1 IIIB chronically infected H9 cells / MT-2 cells. In kind it is cell-based. The procedure: HIV-1-mediated cell-cell fusion was determined by a dye transfer assay (Lu H et al. J Virol Methods 107:155-161, 2003.) using Calcein AM-labeled HIV-1IIIB chronically infected H9 (H9/HIV-1 IIIB) cells as effector cells and MT-2 cells as target cells.
The test system of assay [2] is HIV-1 IIIB (B, X4). The procedure:
The inhibitory activity of the bifunctional molecule on HIV-1 IIIB infection was determined by ELISA for p24 production (Jiang S et al. J Exp Med 174:1557-1563, 1991). Briefly, MT-2 cells were infected with HIV-1IIIB at 100 TCID50 (50% tissue culture infective dose) in RPMI 1640 medium containing 10% FBS in the presence or absence of an antigen specific antiserum or IgG antibody in serial 2-fold dilutions at 37° C. overnight. The culture supernatants were then removed and fresh media were added. On day 4 post-infection, the culture supernatants were collected and mixed with equal volumes of 5% TRITON™ X-100 for the detection in the p24 protein ELISA.

Assay [3] has as its system HIV-1 Bal (B, R5). Type of assay: cell-based. As to the method: The cells were harvested and lysed on the fourth day post-infection with 50 μl of lysing reagent. The luciferase activity was analyzed using a luciferase kit (Promega) and a luminometer (Ultra 386, Tecan) according to the manufacturer's instruction. The percent inhibition of luciferase activity was calculated.

The test system of another assay is 92US657 (B, R5). In kind it is cell-based, HIV-1. As to the method: (§1) The inhibitory activity of the bifunctional molecule on infection by primary HIV-1 isolates, 92US657 (B, R5), 94UG103 (A, X4R5), 93MW959 (C, R5), RU570 (G, R5) and 92TH009 (E/A, R5) was determined (Jiang S et al. Antimicrob Agents Chemother 48:4349-4359, 2004). Briefly, peripheral blood mononuclear cells (PBMCs) were isolated from the blood of healthy donors using a standard density gradient (Histopaque-1077, Sigma) centrifugation. After incubation at 37° C. for 2 hr, the nonadherent cells were collected and resuspended at 5×10^5/ml in RPMI 1640 medium containing 10% FBS, 5 μg of phytohemagglutinin (PHA)/ml, and 100 U of IL-2/ml, followed by incubation at 37° C. for 3 days. The PHA-stimulated cells were infected with the corresponding primary HIV-1 isolates at a multiplicity of infection (MOI) of 0.01 in the absence or presence of antisera at a serial 2-fold dilution. The supernatants were collected 7 days post-infection and tested for p24 antigen by ELISA as described above. The IC50 was calculated using the […]™ software as described above.

For a further assay, the system named is 93MW959 (C, R5). Type of assay: cell-based, HIV-1. The procedure: as §1
The subject of the next assay is 94UG103 (A, X4R5). Type of assay: cell-based, HIV-1. As to the method:
as §1

Another assay relates to RU570 (G, R5). In kind it is cell-based, HIV-1. The procedure:
as §1

A further assay has as its system 92TH009 (E/A, R5). In words: Primary HIV-1 isolate infection of PBMCs, p24 ELISA. In kind it is cell-based. As to the method: as §1
In assay [4] the test system is HIV-1 IIIB (B, X4). As to the kind of experiment: Inactivation of cell-free virus, PEG 6000 precipitation, MT-2 cells, p24. Type of assay: cell-based. Conditions: FIG. 17, MT-2 cells. As to the method: (§2) Briefly, HIV-1 isolate (500 TCID50/ml) was added to 100 μl of the samples with different concentration and incubate on 4° C. for 1 hour. Then, PEG 6000 was added to the final concentration of 3% and centrifuge on a microfuge at 15,000 rpm for 30 min. The supernatants were removed, and the pellet was washed with PBS and resuspended to 100 μl. MT-2 or TZM-bl cells (1×10^5/ml) were added at 100 μl/well, and cultured at 37° C. for 3 days. p24 production in MT-2 or luciferase activity was determined according to kit manufacturer' instruction.

Assay [5] deals with HIV-1 Bal (B, R5). In words: Inactivation of cell-free virus, PEG 6000 precipitation, TZM-bl cells, luciferase. Type of assay: cell-based. Conditions: FIG. 18, luciferase. As to the method:
as §2

Consider enfuvirtide, for which the pIC50 in assay [1] is 7.70; in the assay on HIV-1 IIIB (B, X4) [2], 7.76; with HIV-1 Bal (B, R5) [3] it was 7.36; with 92US657 (B, R5), 7.25; with 93MW959 (C, R5) it was 8.33; in the assay with 94UG103 (A, X4R5), 8.18. Further, the pIC50 was 7.36 in the assay with RU570 (G, R5) and 8.84 in the assay on 92TH009 (E/A, R5) (read-out: IC50, HIV-1 replication 92TH009 (E/A, R5)). For the same substance, the IC90 was 41.7 nM in [1]; 117 nM in the assay on HIV-1 IIIB (B, X4) [2]; more than 250 nM in the assay with HIV-1 Bal (B, R5) [3]; 224 nM in the assay on 92US657 (B, R5); 18.8 nM with 93MW959 (C, R5); 29.4 nM in the assay on 94UG103 (A, X4R5). Besides, the IC90 is 110 nM in the assay on RU570 (G, R5) and 7.99 nM in the assay on 92TH009 (E/A, R5) (read-out: IC90, HIV-1 replication 92TH009 (E/A, R5)). Besides, in the assay with HIV-1 IIIB (B, X4) [4], the “virus inactivation activity, HIV-1 IIIB” value is “no significant effects on virus”. Moreover, the “virus inactivation activity, HIV-1 Bal” value with HIV-1 Bal (B, R5) [5] is “no significant effects on virus”.
